# From patent US7279161B2, “Factor IX/factor IXa activating antibodies and antibody derivatives” (Baxter Aktiengesellschaft, priority 1999, dated 2007)
# Test system: FVIII deficient plasma
# Experiment: aPTT based one stage clotting assay in FVIII deficient plasma
# Format: biochemical, human
# Summary of the method: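 Test samples preincubated 4 min with FVIII-deficient plasma and aPTT reagent (DAPTTIN or Pathromtin SL), optionally with 50 ng activated FIX; clotting started with 25 mM CaCl2. Read-out is clotting time from start to clot formation, set against FVIII, buffer or scrambled-peptide controls.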
sequence,measurement,setting,value
RRREGGGYYVNWYFDRRR [A1/3],reduction in the clotting time,"Pathromtin SL, in the absence of FIXa",no reduction of the clotting time was detectable
same,reduction in the clotting time,"Pathromtin SL, in the presence of FIXa",dose dependent reduction in the clotting time
same,average clotting time,"Table 3A Exp. 1, DAPTTIN, 2.5 μM, 2.2 nM FIXa",91 s
same,clotting time,"Table 3A Exp. 1, DAPTTIN, 2.5 μM, 2.2 nM FIXa, duplicate 1",91.1 s
same,clotting time,"Table 3A Exp. 1, DAPTTIN, 2.5 μM, 2.2 nM FIXa, duplicate 2",91 s
same,average clotting time,"Table 3A Exp. 1, DAPTTIN, 2.5 μM, w/o FIXa",105 s
same,clotting time,"Table 3A Exp. 1, DAPTTIN, 2.5 μM, w/o FIXa, duplicate 1",105.2 s
same,clotting time,"Table 3A Exp. 1, DAPTTIN, 2.5 μM, w/o FIXa, duplicate 2",104.8 s
same,average clotting time,"Table 3A Exp. 1, DAPTTIN, 7.5 μM, 2.2 nM FIXa",73 s
same,clotting time,"Table 3A Exp. 1, DAPTTIN, 7.5 μM, 2.2 nM FIXa, duplicate 1",73.1 s
same,clotting time,"Table 3A Exp. 1, DAPTTIN, 7.5 μM, 2.2 nM FIXa, duplicate 2",72.7 s
same,average clotting time,"Table 3A Exp. 1, DAPTTIN, 7.5 μM, w/o FIXa",98 s
same,clotting time,"Table 3A Exp. 1, DAPTTIN, 7.5 μM, w/o FIXa, duplicate 1",97.8 s
same,clotting time,"Table 3A Exp. 1, DAPTTIN, 7.5 μM, w/o FIXa, duplicate 2",97.9 s
same,average clotting time,"Table 3A Exp. 1, DAPTTIN, 12.5 μM, 2.2 nM FIXa",60 s
same,clotting time,"Table 3A Exp. 1, DAPTTIN, 12.5 μM, 2.2 nM FIXa, duplicate 1",60.2 s
same,clotting time,"Table 3A Exp. 1, DAPTTIN, 12.5 μM, 2.2 nM FIXa, duplicate 2",58.9 s
same,average clotting time,"Table 3A Exp. 1, DAPTTIN, 12.5 μM, w/o FIXa",80 s
same,clotting time,"Table 3A Exp. 1, DAPTTIN, 12.5 μM, w/o FIXa, duplicate 1",80.2 s
same,clotting time,"Table 3A Exp. 1, DAPTTIN, 12.5 μM, w/o FIXa, duplicate 2",80.6 s
same,average clotting time,"Table 3A Exp. 1, DAPTTIN, 15 μM, 2.2 nM FIXa",60 s
same,clotting time,"Table 3A Exp. 1, DAPTTIN, 15 μM, 2.2 nM FIXa, duplicate 1",59.3 s
same,clotting time,"Table 3A Exp. 1, DAPTTIN, 15 μM, 2.2 nM FIXa, duplicate 2",59.9 s
same,average clotting time,"Table 3A Exp. 1, DAPTTIN, 15 μM, w/o FIXa",78 s
same,clotting time,"Table 3A Exp. 1, DAPTTIN, 15 μM, w/o FIXa, duplicate 1",78.2 s
same,clotting time,"Table 3A Exp. 1, DAPTTIN, 15 μM, w/o FIXa, duplicate 2",77.1 s
same,average clotting time,"Table 3A Exp. 2, DAPTTIN, 1.25 μM, 2.2 nM FIXa",91 s
same,clotting time,"Table 3A Exp. 2, DAPTTIN, 1.25 μM, 2.2 nM FIXa, duplicate 1",90.7 s
same,clotting time,"Table 3A Exp. 2, DAPTTIN, 1.25 μM, 2.2 nM FIXa, duplicate 2",90.8 s
same,average clotting time,"Table 3A Exp. 2, DAPTTIN, 1.25 μM, w/o FIXa",109 s
same,clotting time,"Table 3A Exp. 2, DAPTTIN, 1.25 μM, w/o FIXa, duplicate 1",108.7 s
same,clotting time,"Table 3A Exp. 2, DAPTTIN, 1.25 μM, w/o FIXa, duplicate 2",109.3 s
same,average clotting time,"Table 3A Exp. 2, DAPTTIN, 2.5 μM, 2.2 nM FIXa",88 s
same,clotting time,"Table 3A Exp. 2, DAPTTIN, 2.5 μM, 2.2 nM FIXa, duplicate 1",88 s
same,clotting time,"Table 3A Exp. 2, DAPTTIN, 2.5 μM, 2.2 nM FIXa, duplicate 2",88.8 s
same,average clotting time,"Table 3A Exp. 2, DAPTTIN, 2.5 μM, w/o FIXa",110 s
same,clotting time,"Table 3A Exp. 2, DAPTTIN, 2.5 μM, w/o FIXa, duplicate 1",110.1 s
same,clotting time,"Table 3A Exp. 2, DAPTTIN, 2.5 μM, w/o FIXa, duplicate 2",108.9 s
same,average clotting time,"Table 3A Exp. 2, DAPTTIN, 5 μM, 2.2 nM FIXa",77 s
same,clotting time,"Table 3A Exp. 2, DAPTTIN, 5 μM, 2.2 nM FIXa, duplicate 1",77 s
same,clotting time,"Table 3A Exp. 2, DAPTTIN, 5 μM, 2.2 nM FIXa, duplicate 2",76 s
same,average clotting time,"Table 3A Exp. 2, DAPTTIN, 5 μM, w/o FIXa",104 s
same,clotting time,"Table 3A Exp. 2, DAPTTIN, 5 μM, w/o FIXa, duplicate 1",103.4 s
same,clotting time,"Table 3A Exp. 2, DAPTTIN, 5 μM, w/o FIXa, duplicate 2",104.8 s
same,average clotting time,"Table 3A Exp. 2, DAPTTIN, 7.5 μM, 2.2 nM FIXa",73 s
same,clotting time,"Table 3A Exp. 2, DAPTTIN, 7.5 μM, 2.2 nM FIXa, duplicate 1",71.6 s
same,clotting time,"Table 3A Exp. 2, DAPTTIN, 7.5 μM, 2.2 nM FIXa, duplicate 2",73.9 s
same,average clotting time,"Table 3A Exp. 2, DAPTTIN, 7.5 μM, w/o FIXa",100 s
same,clotting time,"Table 3A Exp. 2, DAPTTIN, 7.5 μM, w/o FIXa, duplicate 1",100.1 s
same,clotting time,"Table 3A Exp. 2, DAPTTIN, 7.5 μM, w/o FIXa, duplicate 2",100.5 s
same,average clotting time,"Table 3A Exp. 2, DAPTTIN, 10 μM, 2.2 nM FIXa",63 s
same,clotting time,"Table 3A Exp. 2, DAPTTIN, 10 μM, 2.2 nM FIXa, duplicate 1",63.1 s
same,clotting time,"Table 3A Exp. 2, DAPTTIN, 10 μM, 2.2 nM FIXa, duplicate 2",62.5 s
same,average clotting time,"Table 3A Exp. 2, DAPTTIN, 10 μM, w/o FIXa",79 s
same,clotting time,"Table 3A Exp. 2, DAPTTIN, 10 μM, w/o FIXa, duplicate 1",79.1 s
same,clotting time,"Table 3A Exp. 2, DAPTTIN, 10 μM, w/o FIXa, duplicate 2",78.5 s
same,average clotting time,"Table 3A Exp. 2, DAPTTIN, 12.5 μM, 2.2 nM FIXa",57 s
same,clotting time,"Table 3A Exp. 2, DAPTTIN, 12.5 μM, 2.2 nM FIXa, duplicate 1",56.7 s
same,clotting time,"Table 3A Exp. 2, DAPTTIN, 12.5 μM, 2.2 nM FIXa, duplicate 2",56.7 s
same,average clotting time,"Table 3A Exp. 2, DAPTTIN, 12.5 μM, w/o FIXa",85 s
same,clotting time,"Table 3A Exp. 2, DAPTTIN, 12.5 μM, w/o FIXa, duplicate 1",83.6 s
same,clotting time,"Table 3A Exp. 2, DAPTTIN, 12.5 μM, w/o FIXa, duplicate 2",85.5 s
same,average clotting time,"Table 3B, Pathromtin SL, 1 μM, 2.2 nM FIXa",105 s
same,clotting time,"Table 3B, Pathromtin SL, 1 μM, 2.2 nM FIXa, duplicate 1",103.7 s
same,clotting time,"Table 3B, Pathromtin SL, 1 μM, 2.2 nM FIXa, duplicate 2",105.9 s
same,average clotting time,"Table 3B, Pathromtin SL, 1 μM, w/o FIXa",139 s
same,clotting time,"Table 3B, Pathromtin SL, 1 μM, w/o FIXa, duplicate 1",138.3 s
same,clotting time,"Table 3B, Pathromtin SL, 1 μM, w/o FIXa, duplicate 2",138.8 s
same,average clotting time,"Table 3B, Pathromtin SL, 5 μM, 2.2 nM FIXa",88 s
same,clotting time,"Table 3B, Pathromtin SL, 5 μM, 2.2 nM FIXa, duplicate 1",86.6 s
same,clotting time,"Table 3B, Pathromtin SL, 5 μM, 2.2 nM FIXa, duplicate 2",90.2 s
same,average clotting time,"Table 3B, Pathromtin SL, 5 μM, w/o FIXa",154 s
same,clotting time,"Table 3B, Pathromtin SL, 5 μM, w/o FIXa, duplicate 1",152.6 s
same,clotting time,"Table 3B, Pathromtin SL, 5 μM, w/o FIXa, duplicate 2",155.6 s
same,average clotting time,"Table 3B, Pathromtin SL, 10 μM, 2.2 nM FIXa",78 s
same,clotting time,"Table 3B, Pathromtin SL, 10 μM, 2.2 nM FIXa, duplicate 1",76.2 s
same,clotting time,"Table 3B, Pathromtin SL, 10 μM, 2.2 nM FIXa, duplicate 2",79.8 s
same,average clotting time,"Table 3B, Pathromtin SL, 10 μM, w/o FIXa",135 s
same,clotting time,"Table 3B, Pathromtin SL, 10 μM, w/o FIXa, duplicate 1",135.7 s
same,clotting time,"Table 3B, Pathromtin SL, 10 μM, w/o FIXa, duplicate 2",134.6 s
same,average clotting time,"Table 3B, Pathromtin SL, 15 μM, 2.2 nM FIXa",75 s
same,clotting time,"Table 3B, Pathromtin SL, 15 μM, 2.2 nM FIXa, duplicate 1",75.4 s
same,clotting time,"Table 3B, Pathromtin SL, 15 μM, 2.2 nM FIXa, duplicate 2",75.2 s
same,average clotting time,"Table 3B, Pathromtin SL, 15 μM, w/o FIXa",151 s
same,clotting time,"Table 3B, Pathromtin SL, 15 μM, w/o FIXa, duplicate 1",152.8 s
same,clotting time,"Table 3B, Pathromtin SL, 15 μM, w/o FIXa, duplicate 2",149.3 s
same,average clotting time,"Table 4, 1.25 μM, 2.2 nM FIXa",95 s
same,clotting time,"Table 4, 1.25 μM, 2.2 nM FIXa, duplicate 1",94.4 s
same,clotting time,"Table 4, 1.25 μM, 2.2 nM FIXa, duplicate 2",95 s
same,average clotting time,"Table 4, 1.25 μM, w/o FIXa",107 s
same,clotting time,"Table 4, 1.25 μM, w/o FIXa, duplicate 1",106.7 s
same,clotting time,"Table 4, 1.25 μM, w/o FIXa, duplicate 2",107 s
same,average clotting time,"Table 4, 2.5 μM, 2.2 nM FIXa",93 s
same,clotting time,"Table 4, 2.5 μM, 2.2 nM FIXa, duplicate 1",93.6 s
same,clotting time,"Table 4, 2.5 μM, 2.2 nM FIXa, duplicate 2",93.3 s
same,average clotting time,"Table 4, 2.5 μM, w/o FIXa",108 s
same,clotting time,"Table 4, 2.5 μM, w/o FIXa, duplicate 1",107.9 s
same,clotting time,"Table 4, 2.5 μM, w/o FIXa, duplicate 2",107.6 s
same,average clotting time,"Table 4, 5 μM, 2.2 nM FIXa",89 s
same,clotting time,"Table 4, 5 μM, 2.2 nM FIXa, duplicate 1",89.7 s
same,clotting time,"Table 4, 5 μM, 2.2 nM FIXa, duplicate 2",88.3 s
same,average clotting time,"Table 4, 5 μM, w/o FIXa",108 s
same,clotting time,"Table 4, 5 μM, w/o FIXa, duplicate 1",108.4 s
same,clotting time,"Table 4, 5 μM, w/o FIXa, duplicate 2",107.7 s
same,average clotting time,"Table 4, 7.5 μM, 2.2 nM FIXa",81 s
same,clotting time,"Table 4, 7.5 μM, 2.2 nM FIXa, duplicate 1",80.7 s
same,clotting time,"Table 4, 7.5 μM, 2.2 nM FIXa, duplicate 2",80.5 s
same,average clotting time,"Table 4, 7.5 μM, w/o FIXa",105 s
same,clotting time,"Table 4, 7.5 μM, w/o FIXa, duplicate 1",105.2 s
same,clotting time,"Table 4, 7.5 μM, w/o FIXa, duplicate 2",105.2 s
same,average clotting time,"Table 4, 10 μM, 2.2 nM FIXa",73 s
same,clotting time,"Table 4, 10 μM, 2.2 nM FIXa, duplicate 1",72 s
same,clotting time,"Table 4, 10 μM, 2.2 nM FIXa, duplicate 2",73.2 s
same,average clotting time,"Table 4, 10 μM, w/o FIXa",104 s
same,clotting time,"Table 4, 10 μM, w/o FIXa, duplicate 1",104.4 s
same,clotting time,"Table 4, 10 μM, w/o FIXa, duplicate 2",104.5 s
same,average clotting time,"Table 4, 12.5 μM, 2.2 nM FIXa",67 s
same,clotting time,"Table 4, 12.5 μM, 2.2 nM FIXa, duplicate 1",65 s
same,clotting time,"Table 4, 12.5 μM, 2.2 nM FIXa, duplicate 2",68 s
same,average clotting time,"Table 4, 12.5 μM, w/o FIXa",100 s
same,clotting time,"Table 4, 12.5 μM, w/o FIXa, duplicate 1",99.4 s
same,clotting time,"Table 4, 12.5 μM, w/o FIXa, duplicate 2",100.5 s
same,average clotting time,"Table 4, 15 μM, 2.2 nM FIXa",56 s
same,clotting time,"Table 4, 15 μM, 2.2 nM FIXa, duplicate 1",56.1 s
same,clotting time,"Table 4, 15 μM, 2.2 nM FIXa, duplicate 2",55.5 s
same,average clotting time,"Table 4, 15 μM, w/o FIXa",78 s
same,clotting time,"Table 4, 15 μM, w/o FIXa, duplicate 1",77.8 s
same,clotting time,"Table 4, 15 μM, w/o FIXa, duplicate 2",78 s
